According to patent US20150342234A1, “Steviol Glycoside Compositions Sensory Properties” (Evolva SA, priority 2012, published 2015):

Columns and labels:
[1] = system: panel of 9 tasters (8 trained sensory panellists and 1 Evolve employee); experiment: Sensory evaluation by rapid profiling protocol, blinded samples, two replicates; assay type: in vivo; settings: for Sweetness build Fl. mean score / Sweetness onset Fl. mean score: after 1st sip, mean of Rep 1 and Rep 2, 0.0385% w/v in mineral water; for Sweetness build Fl. mean score / Sweetness onset Fl. mean score / Acid At. mean score / Artificial sweetness At. mean score / Bitter At. mean score / Overall Sweetness At. mean score / liquorice At. mean score / Acid Fl. mean score / Artificial sweetness Fl. mean score / Bitter Fl. mean score / Liquorice FL mean score / Overall Sweetness Fl. mean score / Body/ thickness Mf. mean score / Mouth coating Mf. mean score / Mouth drying Mf. mean score / Mouth watering Mf. mean score / Tingling Mf. mean score: 0-100 scale; for Acid At. mean score / Artificial sweetness At. mean score / Bitter At. mean score / Overall Sweetness At. mean score / liquorice At. mean score: aftertaste; for Acid At. mean score / Artificial sweetness At. mean score / Bitter At. mean score / Overall Sweetness At. mean score / liquorice At. mean score / Acid Fl. mean score / Artificial sweetness Fl. mean score / Bitter Fl. mean score / Liquorice FL mean score / Overall Sweetness Fl. mean score / Body/ thickness Mf. mean score / Mouth coating Mf. mean score / Mouth drying Mf. mean score / Mouth watering Mf. mean score / Tingling Mf. mean score: mean of 2 replicates, 0.0385% w/v; for Acid Fl. mean score / Artificial sweetness Fl. mean score / Bitter Fl. mean score / Liquorice FL mean score / Overall Sweetness Fl. mean score: flavor; for Acid Fl. mean score / Artificial sweetness Fl. mean score / Bitter Fl. mean score / Liquorice FL mean score / Overall Sweetness Fl. mean score / Body/ thickness Mf. mean score: after second and third sip; for Body/ thickness Mf. mean score / Mouth coating Mf. mean score / Mouth drying Mf. mean score / Mouth watering Mf. mean score / Tingling Mf. mean score: mouthfeel
Protocol: (§1) A sensory evaluation of the sample isolated in Example 5 was conducted by a commercial consumer research and sensory analysis company, using a rapid profiling protocol. The sensory profile of the yeast fermented Reb A product was compared to that of a commercially available RebA product by a panel of 9 tasters (8 trained sensory panellists and 1 Evolve employee), over a two hour period. […] Both products were dissolved in Highland Springs bottled mineral water (Highland Spring Group, Blackford, Pertishire, United Kingdom) at 0.0385% w/v, which is approximately equivalent in sweetness to 8% sucrose.
After a break, the panelists were presented one blinded sample of the yeast-derived RebA solution and one blinded sample of the commercial RebA solution. Sample were presented in a balanced order to the panelists. For each blinded sample, panelists carried out the following tasting procedure. Panelists were instructed take one sip of the sample and score the Sweetness Build and Sweetness Onset attributes. A second and third sip of the sample were then taken, and panelists were instructed to score Flavor Attributes and Mouth Feel attribute Body/thickness. Each panelist then took a final sip of the sample and was asked to score Aftertaste and Mouth Sensations at 20 seconds and 120 seconds after the final sip.
All panellist scores were entered into a computer using Compusense® data collection software (Compusense, Guelph, Ontario, Canada). Agreed reference scores were marked on the scales as a guide. A rest period of 5 minutes duration was observed between samples and palate cleansers of Carr's® water crackers (Kellogg's, Battle Creek, Mich.) and Highland Spring bottled mineral water applied during this time.
After one replicate of testing had been completed, panelists discussed differences between products. Panelists thought there were some subtle differences between products but no new flavors, off flavors, or mouth sensations were experienced. It was therefore decided to carry out a second replicate testing of the two Reb A samples using the same vocabulary and different blinding codes. The same tasting procedure was used for the second replicate as that used for the first replicate.
Mean scores were calculated for each attribute and sample over the two replicates (Rep 1 and Rep 2). Table 16 provides the mean scores for each attribute. Scores in bold shown a statistically significant difference between the two RebA samples.

[2] = system: panel of 9 tasters (8 trained sensory panellists and 1 Evolve employee); experiment: Agreed reference intensity scores for the commercial Reb A reference sample (vocabulary determination); assay type: in vivo; settings: agreed approximate intensity score, 0-100 scale; 0.0385% w/v
Protocol: as §1
An appropriate vocabulary was determined using the commercial Reb A solution as a reference sample. As a starting point, the panel used an attribute vocabulary agreed to for previous sweetener sensory analyses, including sweetness onset time, sweetness build, sweetness, bitterness, etc. Panelists discussed and agreed which of the attributes were present in the reference sample and also agreed on approximate intensity scores on a 0-100 scale for each attribute. Table 15 describes each characteristic that was assessed and how each characteristic was scored for the reference sample.

[3] = first block (20 seconds after final sip)
[4] = second block (120 seconds after final sip)

In the case of `C=C1C[C@@]23CC[C@H]4[C@@](C)(CCC[C@@]4(C)C(=O)O[C@@H]4O[C@H](CO)[C@@H](O)[C@H](O)[C@H]4O)[C@@H]2CC[C@]1(O[C@@H]1O[C@H](CO)[C@@H](O)[C@H](O[C@@H]2O[C@H](CO)[C@@H](O)[C@H](O)[C@H]2O)[C@H]1O[C@@H]1O[C@H](CO)[C@@H](O)[C@H](O)[C@H]1O)C3` [Commercial RebA, rebaudioside A], the “Sweetness build Fl. mean score” value [1] is reported as 34.5, the “Sweetness onset Fl. mean score” value [1] is reported as 5.6 and the “Acid At. mean score” value [1, 3] is reported as 8.5. For the same molecule, the “Artificial sweetness At. mean score” value [1, 3] was 40.8, the “Bitter At. mean score” value [1, 3] was 22.1 and the “Overall Sweetness At. mean score” value [1, 3] was 52.8. For the same molecule, the “liquorice At. mean score” value [1, 3] was 21.1, the “Acid At. mean score” value [1, 4] was 8.9 and the “Artificial sweetness At. mean score” value [1, 4] was 32.6. For the same molecule, the “Bitter At. mean score” value [1, 4] was 20.6, the “Overall Sweetness At. mean score” value [1, 4] was 49.6 and the “liquorice At. mean score” value [1, 4] was 16.3. The “Acid Fl. mean score” value [1] was 10.6, the “Artificial sweetness Fl. mean score” value [1] was 54.0 and the “Bitter Fl. mean score” value [1] was 20.7. For the same molecule, the “Liquorice FL mean score” value [1] was 18.0, the “Overall Sweetness Fl. mean score” value [1] was 61.7 and the “Body/ thickness Mf. mean score” value [1] was 39.4. For the same molecule, the “Mouth coating Mf. mean score” value [1, 3] was 27.4, the “Mouth drying Mf. mean score” value [1, 3] was 40.1 and the “Mouth watering Mf. mean score” value [1, 3] was 10.9. The “Tingling Mf. mean score” value [1, 3] was 13.0, the “Mouth coating Mf. mean score” value [1, 4] was 26.3 and the “Mouth drying Mf. mean score” value [1, 4] was 42.7. The “Mouth watering Mf. mean score” value [1, 4] was 14.7, the “Tingling Mf. mean score” value [1, 4] was 12.9 and the “sweetness build score compared with the yeast derived RebA sample” value ([1]; time to peak in sweetness intensity, 95% confidence level) was “significantly longer”. The “Acidic (Flavor/Aftertaste) Score after 3 d sip (20 sec)” value [2] was 10, the “Acidic (Flavor/Aftertaste) Score after 3 d sip (2 min)” value [2] was 10 and the “Acidic (Flavor/Aftertaste) Score after 3 d sip (immediate)” value [2] was 10. The “Artificial sweetness (Flavor/Aftertaste) Score after 3 d sip (20 sec)” value [2] was 35, the “Artificial sweetness (Flavor/Aftertaste) Score after 3 d sip (2 min)” value [2] was 20 and the “Artificial sweetness (Flavor/Aftertaste) Score after 3 d sip (immediate)” value [2] was 55. For the same molecule, the “Bitter (Flavor/Aftertaste) Score after 3 d sip (20 sec)” value [2] was 20, the “Bitter (Flavor/Aftertaste) Score after 3 d sip (2 min)” value [2] was 20 and the “Bitter (Flavor/Aftertaste) Score after 3 d sip (immediate)” value [2] was 10. The “Body/thickness (Mouthfeel) Score after 3 d sip (immediate)” value [2] was 40, the “Liquorice (Flavor/Aftertaste) Score after 3 d sip (20 sec)” value [2] was 35 and the “Liquorice (Flavor/Aftertaste) Score after 3 d sip (2 min)” value [2] was 30. The “Liquorice (Flavor/Aftertaste) Score after 3 d sip (immediate)” value [2] was 30, the “Mouth coating (Mouthfeel) Score after 3 d sip (20 sec)” value [2] was 30 and the “Mouth coating (Mouthfeel) Score after 3 d sip (2 min)” value [2] was 30. For the same molecule, the “Mouth drying (Mouthfeel) Score after 3 d sip (20 sec)” value [2] was 35, the “Mouth drying (Mouthfeel) Score after 3 d sip (2 min)” value [2] was 35 and the “Mouth watering (Mouthfeel) Score after 3 d sip (20 sec)” value [2] was 0. The “Mouth watering (Mouthfeel) Score after 3 d sip (2 min)” value [2] was 20, the “Overall Sweetness (Flavor/Aftertaste) Score after 3 d sip (20 sec)” value [2] was 50 and the “Overall Sweetness (Flavor/Aftertaste) Score after 3 d sip (2 min)” value [2] was 50. The “Overall Sweetness (Flavor/Aftertaste) Score after 3 d sip (immediate)” value [2] was 70, the “Sweetness build (Flavor) Score after 1st sip” value [2] was 30 and the “Sweetness onset (Flavor) Score after 1st sip” value [2] was 5. For the same molecule, the “Tingling (Mouthfeel) Score after 3 d sip (20 sec)” value [2] was 10 and the “Tingling (Mouthfeel) Score after 3 d sip (2 min)” value [2] was 5.
With `C=C1C[C@@]23CC[C@H]4[C@@](C)(CCC[C@@]4(C)C(=O)O[C@@H]4O[C@H](CO)[C@@H](O)[C@H](O)[C@H]4O)[C@@H]2CC[C@]1(O[C@@H]1O[C@H](CO)[C@@H](O)[C@H](O[C@@H]2O[C@H](CO)[C@@H](O)[C@H](O)[C@H]2O)[C@H]1O[C@@H]1O[C@H](CO)[C@@H](O)[C@H](O)[C@H]1O)C3` [Yeast derived Reb A, rebaudioside A] the “Sweetness build Fl. mean score” value [1] was 30.2, the “Sweetness onset Fl. mean score” value [1] was 5.5 and the “Acid At. mean score” value [1, 3] was 6.9. The “Artificial sweetness At. mean score” value [1, 3] was 33.8, the “Bitter At. mean score” value [1, 3] was 17.2 and the “Overall Sweetness At. mean score” value [1, 3] was 49.6. The “liquorice At. mean score” value [1, 3] was 19.2, the “Acid At. mean score” value [1, 4] was 5.5 and the “Artificial sweetness At. mean score” value [1, 4] was 30.0. The “Bitter At. mean score” value [1, 4] was 18.1, the “Overall Sweetness At. mean score” value [1, 4] was 46.2 and the “liquorice At. mean score” value [1, 4] was 16.2. For the same molecule, the “artificial sweetness score compared with the commercial RebA sample” value ([1]; at 20 seconds) was “significantly less”, the “bitter score compared with the commercial RebA sample” value ([1]; at 20 seconds, not statistically significantly different) was “lower” and the “Acid Fl. mean score” value [1] was 8.3. The “Artificial sweetness Fl. mean score” value [1] was 41.8, the “Bitter Fl. mean score” value [1] was 11.8 and the “Liquorice FL mean score” value [1] was 17.2. The “Overall Sweetness Fl. mean score” value [1] was 58.5, the “Body/ thickness Mf. mean score” value [1] was 37.1 and the “Mouth coating Mf. mean score” value [1, 3] was 28.9. For the same molecule, the “Mouth drying Mf. mean score” value [1, 3] was 40.8, the “Mouth watering Mf. mean score” value [1, 3] was 10.1 and the “Tingling Mf. mean score” value [1, 3] was 9.8. For the same molecule, the “Mouth coating Mf. mean score” value [1, 4] was 24.7, the “Mouth drying Mf. mean score” value [1, 4] was 39.8 and the “Mouth watering Mf. mean score” value [1, 4] was 15.7. For the same molecule, the “Tingling Mf. mean score” value [1, 4] was 8.8 and the off flavors ([1]; panellist reports) was “no reports of off flavors”.
